The values below come from patent publication US12291518B2, “Thyroid hormone receptor agonists and use thereof” (Eccogene Inc., priority 2020, dated 2025).

Experiment [1] deals with T1, THR beta-LBD (Homo sapiens, UniProt P10828).
T1 construct: THR beta-LBD (the final concentration is 0.5 nM) was added to the 384-well assay plate; purchased Invitrogen PV4686
T1 sequence (P10828 217-461 limits assumed): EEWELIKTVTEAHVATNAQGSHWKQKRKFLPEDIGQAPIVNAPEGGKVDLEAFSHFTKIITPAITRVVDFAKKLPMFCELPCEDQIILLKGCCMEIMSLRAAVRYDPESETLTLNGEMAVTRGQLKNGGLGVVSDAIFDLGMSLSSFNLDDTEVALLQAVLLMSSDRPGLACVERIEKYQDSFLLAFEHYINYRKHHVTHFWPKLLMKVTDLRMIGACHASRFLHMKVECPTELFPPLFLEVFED
Description: THR-β Coactivator Peptide Recruitment Assay (LanthaScreen TR-FRET). The format is biochemical. The settings on record: TR-FRET coactivator recruitment, THR beta-LBD 0.5 nM; for EC50: read-out: THRβ EC50. The gist of the method: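 Agonist-driven coactivator recruitment read as a 520/495 nm TR-FRET emission ratio after 2 h at room temperature. Final concentrations: THR beta-LBD 0.5 nM, fluorescein-SRC2-2 peptide 0.1 nM, terbium anti-GST antibody 2 nM. EC50 from four-parameter dose-response fitting.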

The target of experiment [2] is T2, THR alpha-LBD (Homo sapiens, UniProt P10827).
T2 construct: except that THR alpha-LBD of a final concentration 0.25 nM was used; purchased Invitrogen PV4687
Description: THR-α Coactivator Peptide Recruitment Assay (LanthaScreen TR-FRET). The experiment is classed as biochemical. The settings on record: TR-FRET coactivator recruitment, THR alpha-LBD 0.25 nM; for EC50: read-out: THRα EC50. The gist of the method: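 TR-FRET coactivator recruitment with THR alpha-LBD at 0.25 nM final, Fluorescein-SRC2-2 peptide 0.1 nM and Tb-labeled anti-GST antibody 2 nM; 2 h incubation at room temperature. 520/495 nm emission ratio fitted to a four-parameter sigmoidal curve to give EC50.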
A general note: In TR-FRET formats the signal depends on donor and acceptor labels being close together.

T2 sequence (P10827 163-410 isoform P10827-2 limits assumed, other chains not shown): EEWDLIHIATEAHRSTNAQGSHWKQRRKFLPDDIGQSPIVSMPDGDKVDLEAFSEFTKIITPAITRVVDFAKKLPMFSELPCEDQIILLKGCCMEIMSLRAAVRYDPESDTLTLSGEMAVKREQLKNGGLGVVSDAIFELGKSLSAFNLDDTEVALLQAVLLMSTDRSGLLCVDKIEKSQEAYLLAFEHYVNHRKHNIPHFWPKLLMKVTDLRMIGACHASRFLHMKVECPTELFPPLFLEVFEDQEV

In the case of `CNS(=O)(=O)c1cc(Oc2c(Cl)cc(-n3nc(C(F)F)c(=O)[nH]c3=O)cc2Cl)ncc1OC` [Compound 127, 2-(2,6-dichloro-4-(6-(difluoromethyl)-3,5-dioxo-4,5-dihydro-1,2,4-triazin-2(3H)-yl)phenoxy)-5-methoxy-N-methylpyridine-4-sulfonamide], in experiment [1], the “THRβ Emax” value was “C (<75)” and the EC50 (commonly the concentration giving half of the maximal effect) is 0.02 to 0.1 µM. Also, in experiment [2], the “THRα Emax” value is reported as “C (<40)” and the EC50 lay within 0.2 to 1 µM.
With `O=c1[nH]c(=O)n(-c2cc(Cl)c(Oc3cc(S(=O)(=O)C4CC4)c(O)cn3)c(Cl)c2)nc1C(F)F` [Compound 128, 2-[3,5-dichloro-4-[(4-cyclopropylsulfonyl-5-hydroxy-2-pyridyl)oxy]phenyl]-6-(difluoromethyl)-1,2,4-triazine-3,5-dione], in experiment [1], the “THRβ Emax” value is recorded as “B (75~90)” and the EC50 is under 0.002 µM. Besides, in experiment [2], the “THRα Emax” value is “A (85~110)” and the EC50 was in the range of 0.002 to 0.2 µM.
In the case of `N#Cc1nn(-c2cc(Cl)c(Oc3cc(S(=O)(=O)C4CC4)c(O)cn3)c(Cl)c2)c(=O)[nH]c1=O` [Compound 129, 2-(3,5-dichloro-4-((4-(cyclopropylsulfonyl)-5-hydroxypyridin-2-yl)oxy)phenyl)-3,5-dioxo-2,3,4,5-tetrahydro-1,2,4-triazine-6-carbonitrile], in experiment [1], the “THRβ Emax” value is “A (90~110)” and the EC50 was in the range of 0.002 to 0.02 µM. Besides, in experiment [2], the “THRα Emax” value is reported as “B (40~85)” and the EC50 was 0.002 to 0.2 µM.
On the same counts, the results for `N#C[C@H]1C[C@H](NS(=O)(=O)c2cc(Oc3c(Cl)cc(-n4nc(C(F)F)c(=O)[nH]c4=O)cc3Cl)ncc2O)C1` [Compound 130, N-(3-cyanocyclobutyl)-2-[2,6-dichloro-4-[6-(difluoromethyl)-3,5-dioxo-1,2,4-triazin-2-yl]phenoxy]-5-hydroxy-pyridine-4-sulfonamide] are “B (75~90)”, 0.002 to 0.02 µM, “B (40~85)” and 0.2 to 1 µM.
In the case of `O=c1[nH]c(=O)n(-c2cc(Cl)c(Oc3cc(S(=O)(=O)NC4CC4)c(O)cn3)c(Cl)c2)nc1C(F)F` [Compound 131, N-cyclopropyl-2-(2,6-dichloro-4-(6-(difluoromethyl)-3,5-dioxo-4,5-dihydro-1,2,4-triazin-2(3H)-yl)phenoxy)-5-hydroxypyridine-4-sulfonamide], in experiment [1], the “THRβ Emax” value is recorded as “A (90~110)” and the EC50 is under 0.002 µM. Besides, in experiment [2], the “THRα Emax” value was “A (85~110)” and the EC50 was in the range of 0.002 to 0.2 µM.
As for `O=c1[nH]c(=O)n(-c2cc(Cl)c(Oc3cc(S(=O)(=O)N[C@H]4C[C@@H](O)C4)c(O)cn3)c(Cl)c2)nc1C(F)F` [Compound 132, 2-(2,6-dichloro-4-(6-(difluoromethyl)-3,5-dioxo-4,5-dihydro-1,2,4-triazin-2(3H)-yl)phenoxy)-5-hydroxy-N-((1s,3s)-3-hydroxycyclobutyl)pyridine-4-sulfonamide], in experiment [1], the “THRβ Emax” value was “A (90~110)” and the EC50 lay within 0.002 to 0.02 µM. For the same molecule, in experiment [2], the “THRα Emax” value was “B (40~85)” and the EC50 lay in the range of 0.2 to 1 µM.
On the same counts, the results for `O=c1[nH]c(=O)n(-c2cc(Cl)c(Oc3cc(S(=O)(=O)NC[C@H]4C[C@H](O)C4)c(O)cn3)c(Cl)c2)nc1C(F)F` [Compound 133, 2-(2,6-dichloro-4-(6-(difluoromethyl)-3,5-dioxo-4,5-dihydro-1,2,4-triazin-2(3H)-yl)phenoxy)-5-hydroxy-N-(((1r,3r)-3-hydroxycyclobutyl)methyl)pyridine-4-sulfonamide] are “B (75~90)”, 0.02 to 0.1 µM, “B (40~85)” and over 1 µM.
For the molecule `O=c1[nH]c(=O)n(-c2cc(Cl)c(Oc3cc(S(=O)(=O)NC[C@H]4C[C@@H](O)C4)c(O)cn3)c(Cl)c2)nc1C(F)F` [Compound 134, 2-(2,6-dichloro-4-(6-(difluoromethyl)-3,5-dioxo-4,5-dihydro-1,2,4-triazin-2(3H)-yl)phenoxy)-5-hydroxy-N-(((1s,3s)-3-hydroxycyclobutyl)methyl)pyridine-4-sulfonamide], in experiment [1], the “THRβ Emax” value is given as “B (75~90)” and the EC50 was in the range of 0.02 to 0.1 µM. Moreover, in experiment [2], the “THRα Emax” value is on record as “B (40~85)” and the EC50 was over 1 µM.
As for `N#CC1(NS(=O)(=O)c2cc(Oc3c(Cl)cc(-n4nc(C(F)F)c(=O)[nH]c4=O)cc3Cl)ncc2O)CC1` [Compound 135, N-(1-cyanocyclopropyl)-2-(2,6-dichloro-4-(6-(difluoromethyl)-3,5-dioxo-4,5-dihydro-1,2,4-triazin-2(3H)-yl)phenoxy)-5-hydroxypyridine-4-sulfonamide], in experiment [1], the “THRβ Emax” value was “A (90~110)” and the 50% effective concentration (EC50) fell in the range of 0.002 to 0.02 µM. Also, in experiment [2], the “THRα Emax” value is on record as “A (85~110)” and the EC50 was 0.002 to 0.2 µM.
On the same counts, the results for `O=c1[nH]c(=O)n(-c2cc(Cl)c(Oc3cc(S(=O)(=O)NC4CCOCC4)c(O)cn3)c(Cl)c2)nc1C(F)F` [Compound 136, 2-(2,6-dichloro-4-(6-(difluoromethyl)-3,5-dioxo-4,5-dihydro-1,2,4-triazin-2(3H)-yl)phenoxy)-5-hydroxy-N-(tetrahydro-2H-pyran-4-yl)pyridine-4-sulfonamide] are “B (75~90)”, 0.002 to 0.02 µM, “B (40~85)” and 0.002 to 0.2 µM.
As for `CC(C)(O)CNS(=O)(=O)c1cc(Oc2c(Cl)cc(-n3nc(C(F)F)c(=O)[nH]c3=O)cc2Cl)ncc1O` [Compound 137, 2-(2,6-dichloro-4-(6-(difluoromethyl)-3,5-dioxo-4,5-dihydro-1,2,4-triazin-2(3H)-yl)phenoxy)-5-hydroxy-N-(2-hydroxy-2-methylpropyl)pyridine-4-sulfonamide], in experiment [1], the “THRβ Emax” value is given as “C (<75)” and the concentration giving a half-maximal response (EC50) is 0.02 to 0.1 µM. Further, in experiment [2], the “THRα Emax” value is given as “B (40~85)” and the EC50 is over 1 µM.
Consider `C[C@]1(O)C[C@@H](NS(=O)(=O)c2cc(Oc3c(Cl)cc(-n4nc(C(F)F)c(=O)[nH]c4=O)cc3Cl)ncc2O)C1` [Compound 138, 2-(2,6-dichloro-4-(6-(difluoromethyl)-3,5-dioxo-4,5-dihydro-1,2,4-triazin-2(3H)-yl)phenoxy)-5-hydroxy-N-((1s,3s)-3-hydroxy-3-methylcyclobutyl)pyridine-4-sulfonamide], for which, in experiment [1], the “THRβ Emax” value is “C (<75)” and the EC50 is over 0.1 µM. In experiment [2], the “THRα Emax” value is listed as “C (<40)” and the EC50 was over 1 µM.
In the case of `CO[C@H]1C[C@H](NS(=O)(=O)c2cc(Oc3c(Cl)cc(-n4nc(C(F)F)c(=O)[nH]c4=O)cc3Cl)ncc2O)C1` [Compound 139, 2-(2,6-dichloro-4-(6-(difluoromethyl)-3,5-dioxo-4,5-dihydro-1,2,4-triazin-2(3H)-yl)phenoxy)-5-hydroxy-N-((1r,3r)-3-methoxycyclobutyl)pyridine-4-sulfonamide], in experiment [1], the “THRβ Emax” value is recorded as “B (75~90)” and the EC50 lay within 0.002 to 0.02 µM. For the same molecule, in experiment [2], the “THRα Emax” value was “B (40~85)” and the EC50 lay within 0.2 to 1 µM.
On the same counts, the results for `CO[C@H]1C[C@@H](NS(=O)(=O)c2cc(Oc3c(Cl)cc(-n4nc(C(F)F)c(=O)[nH]c4=O)cc3Cl)ncc2O)C1` [Compound 140, 2-(2,6-dichloro-4-(6-(difluoromethyl)-3,5-dioxo-4,5-dihydro-1,2,4-triazin-2(3H)-yl)phenoxy)-5-hydroxy-N-((1s,3s)-3-methoxycyclobutyl)pyridine-4-sulfonamide] are “B (75~90)”, 0.02 to 0.1 µM, “B (40~85)” and 0.2 to 1 µM.
Take `O=c1[nH]c(=O)n(-c2cc(Cl)c(Oc3cc(S(=O)(=O)N4CC[C@@H](O)C4)c(O)cn3)c(Cl)c2)nc1C(F)F` [Compound 141, (R)-2-(3,5-dichloro-4-((5-hydroxy-4-((3-hydroxypyrrolidin-1-yl)sulfonyl)pyridin-2-yl)oxy)phenyl)-6-(difluoromethyl)-1,2,4-triazine-3,5(2H,4H)-dione]: in experiment [1], the “THRβ Emax” value is reported as “B (75~90)” and the EC50 was in the range of 0.002 to 0.02 µM. For the same molecule, in experiment [2], the “THRα Emax” value is recorded as “B (40~85)” and the EC50 was 0.002 to 0.2 µM.
On the same counts, the results for `O=c1[nH]c(=O)n(-c2cc(Cl)c(Oc3cc(S(=O)(=O)NC45CC(O)(C4)C5)c(O)cn3)c(Cl)c2)nc1C(F)F` [Compound 142, 2-(2,6-dichloro-4-(6-(difluoromethyl)-3,5-dioxo-4,5-dihydro-1,2,4-triazin-2(3H)-yl)phenoxy)-5-hydroxy-N-(3-hydroxybicyclo[1.1.1]pentan-1-yl)pyridine-4-sulfonamide] are “B (75~90)”, 0.02 to 0.1 µM, “B (40~85)” and 0.2 to 1 µM.
On the same counts, the results for `O=c1[nH]c(=O)n(-c2cc(Cl)c(Oc3cc(S(=O)(=O)N[C@H]4CC[C@H](O)CC4)c(O)cn3)c(Cl)c2)nc1C(F)F` [Compound 143, 2-(2,6-dichloro-4-(6-(difluoromethyl)-3,5-dioxo-4,5-dihydro-1,2,4-triazin-2(3H)-yl)phenoxy)-5-hydroxy-N-((1r,4r)-4-hydroxycyclohexyl)pyridine-4-sulfonamide] are “B (75~90)”, 0.002 to 0.02 µM, “B (40~85)” and 0.2 to 1 µM.
